Source: patent US9663460B2, “Sulfur derivatives as chemokine receptor modulators” (ALLERGAN, INC., priority 2010, dated 2017)

Each compound was assayed against CCR2 (Homo sapiens (Human), UniProt P41597) (assay: Calcium activity assayed on the FLIPR Tetra in HEK-Gqi5 cells stably expressing CCR2). Conditions: FLIPR Tetra calcium assay.
Type: cell-based

Sequence of CCR2 (P41597 whole entry, species assumed): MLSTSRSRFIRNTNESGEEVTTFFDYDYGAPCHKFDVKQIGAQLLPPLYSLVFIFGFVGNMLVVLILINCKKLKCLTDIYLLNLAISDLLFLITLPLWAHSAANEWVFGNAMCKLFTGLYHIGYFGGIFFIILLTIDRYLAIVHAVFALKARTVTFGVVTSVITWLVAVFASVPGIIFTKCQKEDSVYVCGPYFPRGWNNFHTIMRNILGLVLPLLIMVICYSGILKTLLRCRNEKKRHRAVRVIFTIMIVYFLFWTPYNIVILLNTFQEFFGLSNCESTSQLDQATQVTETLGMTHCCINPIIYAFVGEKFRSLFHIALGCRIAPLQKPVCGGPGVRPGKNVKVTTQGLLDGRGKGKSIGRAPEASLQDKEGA

| SMILES | CCR2 % ANTAGONISM [%] | IC50 [µM] |
| --- | --- | --- |
| Nc1cccc(C[S+]([O-])c2ccc(Cl)cc2NS(=O)(=O)c2ccc(F)cc2F)c1 (stereo not drawn) [N-{2-[(3-aminobenzyl)sulfinyl]-5-chlorophenyl}-2,4-difluorobenzenesulfonamide] | 99 | 0.443 |
| Nc1cccc(C[S+]([O-])c2ccc(Cl)cc2NS(=O)(=O)c2ccc(Cl)cc2F)c1 (stereo not drawn) [N-{2-[(3-aminobenzyl)sulfinyl]-5-chlorophenyl}-4-chloro-2-fluorobenzenesulfonamide] | 95 | 0.113 |
| Nc1cccc(C[S+]([O-])c2ccc(Cl)cc2NS(=O)(=O)c2ccc(Cl)cc2)c1 (stereo not drawn) [N-{2-[(3-aminobenzyl)sulfinyl]-5-chlorophenyl}-4-chlorobenzenesulfonamide] | 99 | 0.159 |
| Nc1cccc(C[S+]([O-])c2ccc(Cl)cc2NS(=O)(=O)c2ccccc2)c1 (stereo not drawn) [N-{2-[(3-aminobenzyl)sulfinyl]-5-chlorophenyl}benzenesulfonamide] | 62 | 2.56 |
| Nc1cccc(C[S+]([O-])c2ccc(F)cc2NS(=O)(=O)c2cc3ccccc3o2)c1 (stereo not drawn) [N-{2-[(3-aminobenzyl)sulfinyl]-5-fluorophenyl}-1-benzofuran-2-sulfonamide] | 91 | 0.038 |
| COc1ccc([S+]([O-])Cc2cccc(N)c2)c(NS(=O)(=O)c2cc3ccccc3o2)c1 (stereo not drawn) [N-{2-[(3-aminobenzyl)sulfinyl]-5-methoxyphenyl}-1-benzofuran-2-sulfonamide] | 100 | 0.085 |
| Nc1cccc(C[S+]([O-])c2ccccc2NS(=O)(=O)c2cc3ccccc3o2)c1 (stereo not drawn) [N-{2-[(3-aminobenzyl)sulfinyl]phenyl}-1-benzofuran-2-sulfonamide] | 110 | 0.058 |
| Nc1cccc(CS(=O)(=O)c2ccc(Cl)cc2NS(=O)(=O)c2ccc(F)cc2F)c1 [N-{2-[(3-aminobenzyl)sulfonyl]-5-chlorophenyl}-2,4-difluorobenzenesulfonamide] | 89 | 0.718 |
| Nc1cccc(CS(=O)(=O)c2ccc(Cl)cc2NS(=O)(=O)c2ccc(Cl)cc2F)c1 [N-{2-[(3-aminobenzyl)sulfonyl]-5-chlorophenyl}-4-chloro-2-fluorobenzenesulfonamide] | 96 | 0.248 |
| Nc1cccc(CS(=O)(=O)c2ccc(Cl)cc2NS(=O)(=O)c2ccc(Cl)cc2)c1 [N-{2-[(3-aminobenzyl)sulfonyl]-5-chlorophenyl}-4-chlorobenzenesulfonamide] | 99 | 0.421 |
| Nc1cccc(CS(=O)(=O)c2ccc(Cl)cc2NS(=O)(=O)c2ccccc2)c1 [N-{2-[(3-aminobenzyl)sulfonyl]-5-chlorophenyl}benzenesulfonamide] | 52 | 1.24 |
| Nc1cccc(CS(=O)(=O)c2ccc(F)cc2NS(=O)(=O)c2cc3ccccc3o2)c1 [N-{2-[(3-aminobenzyl)sulfonyl]-5-fluorophenyl}-1-benzofuran-2-sulfonamide] | 90 | 0.022 |
| COc1ccc(S(=O)(=O)Cc2cccc(N)c2)c(NS(=O)(=O)c2cc3ccccc3o2)c1 [N-{2-[(3-aminobenzyl)sulfonyl]-5-methoxyphenyl}-1-benzofuran-2-sulfonamide] | 107 | 0.176 |
| Nc1cccc(CS(=O)(=O)c2ccccc2NS(=O)(=O)c2cc3ccccc3o2)c1 [N-{2-[(3-aminobenzyl)sulfonyl]phenyl}-1-benzofuran-2-sulfonamide] | 94 | 0.041 |
| Nc1cccc(CSc2ccc(Cl)cc2NS(=O)(=O)c2ccc(F)cc2F)c1 [N-{2-[(3-aminobenzyl)thio]-5-chlorophenyl}-2,4-difluorobenzenesulfonamide] | 64 | 3.24 |
| Nc1cccc(CSc2ccc(Cl)cc2NS(=O)(=O)c2cccc(Cl)c2)c1 [N-{2-[(3-aminobenzyl)thio]-5-chlorophenyl}-3-chlorobenzenesulfonamide] | 95 | 1.46 |
| Nc1cccc(CSc2ccc(Cl)cc2NS(=O)(=O)c2ccc(Cl)cc2F)c1 [N-{2-[(3-aminobenzyl)thio]-5-chlorophenyl}-4-chloro-2-fluorobenzenesulfonamide] | 88 | 2.82 |
| Nc1cccc(CSc2ccc(Cl)cc2NS(=O)(=O)c2ccc(Cl)cc2)c1 [N-{2-[(3-aminobenzyl)thio]-5-chlorophenyl}-4-chlorobenzenesulfonamide] | 95 | 3.89 |
| Nc1cccc(CSc2ccc(Cl)cc2NS(=O)(=O)c2ccccc2)c1 [N-{2-[(3-aminobenzyl)thio]-5-chlorophenyl}benzenesulfonamide] | 40 | 3.1 |
| Nc1cccc(CSc2ccc(F)cc2NS(=O)(=O)c2cc3ccccc3o2)c1 [N-{2-[(3-aminobenzyl)thio]-5-fluorophenyl}-1-benzofuran-2-sulfonamide] | 97 | 0.055 |
| COc1ccc(SCc2cccc(N)c2)c(NS(=O)(=O)c2cc3ccccc3o2)c1 [N-{2-[(3-aminobenzyl)thio]-5-methoxyphenyl}-1-benzofuran-2-sulfonamide] | 100 | 1.4 |
| Nc1cccc(CSc2ccccc2NS(=O)(=O)c2cc3ccccc3o2)c1 [N-{2-[(3-aminobenzyl)thio]phenyl}-1-benzofuran-2-sulfonamide] | 105 | 0.676 |
| Nc1cccc(C[S+]([O-])c2ccc(Cl)cc2NS(=O)(=O)c2cc3ccccc3o2)c1 (stereo not drawn) [N-{2-[(3-aminobenzypsulfinyl]-5-chlorophenyl}-1-benzofuran-2-sulfonamide] | 96 | 0.039 |
| Nc1cccc(C[S+]([O-])c2ccc(Cl)cc2NS(=O)(=O)c2cccc(Cl)c2)c1 (stereo not drawn) [N-{2-[(3-aminobenzypsulfinyl]-5-chlorophenyl}-3-chlorobenzenesulfonamide] | 93 | 0.159 |
| Nc1cccc(CS(=O)(=O)c2ccc(Cl)cc2NS(=O)(=O)c2cc3ccccc3o2)c1 [N-{2-[(3-aminobenzypsulfonyl]-5-chlorophenyl}-1-benzofuran-2-sulfonamide] | 90 | 0.023 |
| Nc1cccc(CS(=O)(=O)c2ccc(Cl)cc2NS(=O)(=O)c2cccc(Cl)c2)c1 [N-{2-[(3-aminobenzypsulfonyl]-5-chlorophenyl}-3-chlorobenzenesulfonamide] | 91 | 0.246 |
| Nc1cccc(CSc2ccc(Cl)cc2NS(=O)(=O)c2cc3ccccc3o2)c1 [N-{2-[(3-aminobenzypthio]-5-chlorophenyl}-1-benzofuran-2-sulfonamide] | 92 | 0.042 |
| NCCC[S+]([O-])c1ccc(Cl)cc1NS(=O)(=O)c1cc2ccccc2o1 (stereo not drawn) [N-{2-[(3-aminopropyl)sulfinyl]-5-chlorophenyl}-1-benzofuran-2-sulfonamide] | 63 |  |
| NCCCS(=O)(=O)c1ccc(Cl)cc1NS(=O)(=O)c1cc2ccccc2o1 [N-{2-[(3-aminopropyl)sulfonyl]-5-chlorophenyl}-1-benzofuran-2-sulfonamide] | 82 |  |
| NCCCSc1ccc(Cl)cc1NS(=O)(=O)c1cc2ccccc2o1 [N-{2-[(3-aminopropyl)thio]-5-chlorophenyl}-1-benzofuran-2-sulfonamide] | 102 |  |
